{"source": "patent US6649654B1", "about": "“Methods for identifying and using IKK inhibitors” (The Regents of the University of California, priority 1999, dated 2003)", "key": {"p38": {"target": "p38 (Homo sapiens, UniProt Q16539)", "sequence (Q16539 whole entry)": "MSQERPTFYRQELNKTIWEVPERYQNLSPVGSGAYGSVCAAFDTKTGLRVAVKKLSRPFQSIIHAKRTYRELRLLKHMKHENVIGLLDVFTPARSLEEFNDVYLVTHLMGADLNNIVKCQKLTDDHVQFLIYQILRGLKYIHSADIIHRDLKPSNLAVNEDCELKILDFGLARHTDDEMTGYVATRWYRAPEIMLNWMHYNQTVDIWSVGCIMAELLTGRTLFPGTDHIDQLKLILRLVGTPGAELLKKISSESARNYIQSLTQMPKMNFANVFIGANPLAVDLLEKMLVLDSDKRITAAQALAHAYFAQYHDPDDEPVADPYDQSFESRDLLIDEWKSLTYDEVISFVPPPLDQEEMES", "experiment": "In vitro p38 kinase activity", "type": "biochemical", "design": "Endogenous IKK, HA-tagged IKKα, endogenous JNK1, and p38 activities were determined; endogenous in cells", "settings": "in vitro incubation with up to 60 μM", "description": "Cell lysates were incubated with anti-IKKα (Pharmingen), anti-HA (12CA5; Pharmingen), anti-JNK1 (333.8; Pharmingen), or anti-p38 (New England Biolabs) for 2 hours. Then, 15 μl protein A-Sepharose (Sigma) were added and the mixture was allowed to incubate for 1 hour. After extensive washing, kinase assays were performed as known in the art (See e.g., DiDonato et al., Nature 388:548-554 [1997]). Endogenous IKK, HA-tagged IKKα, endogenous JNK1, and p38 activities were determined with GST-1κBα(1-54), GST-c-Jun(1-79), and GST-ATF2 as substrates.\nEndogenous IKK was immunoprecipitated from TNFα-stimulated HeLa cells and the kinase activity determined in the presence of different concentrations of PGA1 (the results of which are shown in FIG. 2B) or 15dPGJ2 (the results of which are shown in FIG. 2C)."}, "[1]": {"tested_on": "inducible nitric oxide synthase (iNOS)", "settings": "activated monocytes; cited from earlier work"}, "[2]": {"tested_on": "carrageenin-induced pleurisy", "settings": "rats, endogenous and exogenous 15dPGJ2; Gilroy et al.; cited from earlier work"}, "IκBα": {"tested_on": "IκBα", "experiment": "IκBα degradation in stimulated Jurkat cells (immunoblot)", "type": "cell-based, human", "settings": "TNFα or TPA", "description": "Cells used in the experiments described herein were cultured in either RPMI 1640 (Jurkat cells) or DMEM (HeLa and COS cells), supplemented with 10% FBS and antibiotics. Cells were stimulated with either 25 ng/ml TPA, 20 ng/ml recombinant TNFα, or 10 ng/ml interleukin 1β (Sigma). PGA1, 15dPGJ2, T×B2, LTB4, AA and other PGs (Cayman) dissolved in ethanol were used as well, as known in the art (See e.g., Rossi et al., 94:746-750 [1997]). Controls received equal amounts of ethanol. Transfections were performed using Lipofectamine Plus (GIBCO) for HeLa and COS cells and DEAE-dextran (Sigma) for Jurkat cells. Xpress-tagged NIK, Xpress-tagged MEKK1, HA-tagged IKKα, and HA-tagged IKKβ were also used (See e.g., Zandi et al., Science 281:1360-1363 [1998]; and Delhase et al., Science 284:309-313 [1999]). COX2 and cPLA2 expression vectors were obtained from Dr. L. Feng (See also, Hirose et al., J. Am. Soc. Nephrol., 9:408-416 [1998]). PGD synthase was cloned from HT29 colon carcinoma cell line cDNA by PCR and subcloned into a pCDNA3 vector. […]\nIn addition, recombinant IKKβ was expressed in Sf9 cells and purified as described (Zandi et al., supra). […] After 1.5 hours at 4° C., the immunoprecipitates were washed and the kinase activity determined. […]"}}, "note": "“Also recorded” adds a separate entry of the source.", "data": [{"smiles": "CCCCC/C=C/C=C1/C(=O)C=C[C@@H]1C/C=C\\CCCC(=O)O", "note": "[15dPGJ2, 15-deoxy-Δ^12-14-PGJ2]", "values": [{"measurement": "inhibition of p38 activity in vitro", "setting": "p38", "value": "No significant inhibition"}, {"measurement": "production of inducible nitric oxide synthase (iNOS)", "setting": "[1]", "value": "inhibits"}, {"measurement": "anti-inflammatory effect", "setting": "[2]", "value": "anti-inflammatory effect"}]}, {"smiles": "CCCCC[C@H](O)/C=C/[C@H]1C=CC(=O)C1CCCCCCC(=O)O", "note": "(stereo partly shown) [PGA1, prostaglandin A1]", "values": [{"measurement": "effect on IκBα degradation", "setting": "IκBα", "value": "prevent IκBα degradation; also recorded: prevented"}]}]}
